Reference: patent publication US7101878B1 (Agouron Pharmaceuticals, Inc., priority 1998, dated 2006)
Where two headings read alike, the source gives them in different places.

Target: T1, human GnRH receptor (Homo sapiens, UniProt P30968)
T1 construct: expressed in transfected cells; host or cells: HEK 293 (hGnRH-R/293, from Dr. Stuart Sealfon)
T1 sequence (P30968 1-328): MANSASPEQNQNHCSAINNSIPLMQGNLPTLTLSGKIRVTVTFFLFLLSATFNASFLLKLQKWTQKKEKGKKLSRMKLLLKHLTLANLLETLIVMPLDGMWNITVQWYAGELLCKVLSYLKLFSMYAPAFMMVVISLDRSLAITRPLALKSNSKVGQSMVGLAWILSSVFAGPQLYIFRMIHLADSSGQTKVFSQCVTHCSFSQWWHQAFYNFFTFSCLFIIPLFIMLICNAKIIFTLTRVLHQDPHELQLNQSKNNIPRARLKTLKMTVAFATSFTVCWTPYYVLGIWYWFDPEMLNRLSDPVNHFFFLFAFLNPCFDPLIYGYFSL
Test: Radioligand binding, 125I-GnRH-A displacement, membranes of HEK 293 cells with human GnRH receptor
Conditions: for remaining activity at 10 µM / remaining activity at 1 µM: substrate remaining, closer to zero = closer to 100% inhibition; for remaining activity at 10 µM: 10 uM compound, read-out: S%R 10 uM hGnRHR; for IC50: read-out: hGnRH IC50; for remaining activity at 1 µM: 1 uM compound, read-out: S%R 1 uM hGnRHR
How it was run: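 After filtration and PBS washes, bound radioactivity was counted by scintillation and IC50 derived. Identical conditions applied for non-human receptors.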

[1] = 1 uM, read-out: % Inhib. @ 1 uM hGnRH
[2] = 1 h, repeat of % Inhib. at 1 uM, read-out: Repeats @ 1 uM hGnRH

SMILES | inhibition at 1 µM [1] [%] | inhibition at 1 µM [2] [%] | also measured
COc1cc(CCNC(=O)c2ccc(Cc3cc4c(cc3C)C(C)(C)CCC4(C)C)o2)cc(OC)c1O [drawing 1061] | 44 | 49 | –
Cc1cc2c(cc1Cc1ccc(C(=O)Nc3ccccc3)o1)C(C)(C)CCC2(C)C [Compound 384] | – | – | remaining activity at 10 µM (1 h): 21%
Cc1cc2c(cc1Cc1ccc(C(=O)Nc3ccc(CC(=O)O)cc3)o1)C(C)(C)CCC2(C)C [Compound 33] | – | – | IC50: 5.3 µM
COc1cccc(CNC(=O)c2ccc(Cc3cc4c(cc3C)C(C)(C)CCC4(C)C)o2)c1 [Compound 439] | – | – | remaining activity at 1 µM (1 h): 23%
Cc1cc2c(cc1Cc1ccc(C(=O)Nc3ccccc3C(=O)NCc3cccnc3)o1)C(C)(C)CCC2(C)C [Compound 352] | – | – | remaining activity at 10 µM (1 h): 51%
Cc1ccc(-n2nc(C)cc2NC(=O)c2ccc(Cc3cc4c(cc3C)C(C)(C)CCC4(C)C)o2)cc1 [Compound 326] | – | – | remaining activity at 10 µM (1 h): 51%
Cc1cc2c(cc1Cc1ccc(C(=O)N(C)[C@@H](C)[C@H](C)c3ccccc3)o1)C(C)(C)CCC2(C)C | -7 | 4 | –
Cc1cc2c(cc1Cc1ccc(C(=O)NCc3cccc(CNc4cc(Cl)nc(N)n4)c3)o1)C(C)(C)CCC2(C)C [Compound 145] | – | – | IC50: 0.2 µM
Cc1ccc([C@H](C)NC(=O)c2ccc(Cc3cc4c(cc3C)C(C)(C)CCC4(C)C)o2)cc1 [Compound 123] | – | – | IC50: 0.51 µM
Cc1cc2c(cc1Cc1ccc(C(=O)NCCCN3CCCCC3)o1)C(C)(C)CCC2(C)C [drawing 1050] | -3 | 8 | –
Cc1cnc(CNC(=O)c2cccc(Cc3cc4c(cc3C)C(C)(C)CCC4(C)C)c2)cn1 [Compound 37.5] | – | – | IC50: 7.8 µM
Cc1cc2c(cc1Cc1ccc(C(=O)NCc3cccnc3)o1)C(C)(C)CCC2(C)C [Compound 400] | – | – | remaining activity at 1 µM (1 h): 28%
Cc1cc2c(cc1Cc1ccc(C(=O)NC(C)(C)c3ccccc3)o1)C(C)(C)CCC2(C)C | 28 | 45 | –
Cc1cc2c(cc1Cc1ccc(C(=O)NCCc3ccc4c(c3)OCO4)o1)C(C)(C)CCC2(C)C [drawing 1055] | 51 | 56 | –
Cc1cc2c(cc1Cc1ccc(C(=O)NC(Cc3ccccc3)c3ccccc3)o1)C(C)(C)CCC2(C)C (stereo not drawn) | 13 | 19 | –
CCN(CC)CCNC(=O)c1ccc(NC(=O)c2ccc(Cc3cc4c(cc3C)C(C)(C)CCC4(C)C)o2)cc1 [Compound 321] | – | – | remaining activity at 10 µM (1 h): 55%
COC(CNC(=O)c1ccc(Cc2cc3c(cc2C)C(C)(C)CCC3(C)C)o1)OC [Compound 131] | – | – | IC50: 0.6 µM
COc1cc(OC)c(NC(=O)c2cc(Cc3cc4c(cc3C)C(C)(C)CCC4(C)C)on2)c(OC)c1 [Compound 218] | – | – | IC50: 6.46 µM
Cc1cc2c(cc1Cc1ccc(C(=O)NC3CCC(Nc4nccc(NCC5CCCO5)n4)CC3)o1)C(C)(C)CCC2(C)C (stereo not drawn) [Compound 152] | – | – | IC50: 0.7 µM
Cc1cc2c(cc1Cc1ccc(C(=O)NCc3ccc(S(N)(=O)=O)cc3)o1)C(C)(C)CCC2(C)C [drawing 1052] | 71 | 76 | –
Cc1cc2c(cc1Cc1ccc(C(=O)NCCCC(=O)NC(c3ccccc3)c3ccccc3)o1)C(C)(C)CCC2(C)C | 17 | 28 | –
Cc1cc2c(cc1Cc1ccc(C(=O)NCCC#N)o1)C(C)(C)CCC2(C)C [Compound 436] | – | – | remaining activity at 1 µM (1 h): 58%
Cc1cc2c(cc1Cc1ccc(C(=O)Nn3c(O)nnc3-c3ccccc3)o1)C(C)(C)CCC2(C)C | – | – | inhibition at 10 µM (repeat, read-out: Repeats @ 10 uM hGnRH (% inhib.)): -25%; inhibition at 10 µM (read-out: % inhib. @ 10 uM hGnRH): -25%
CC(=O)c1cccc(NC(=O)c2ccc(Cc3cc4c(cc3C)C(C)(C)CCC4(C)C)o2)c1 [Compound 392] | – | – | remaining activity at 10 µM (1 h): 0%
Cc1cc2c(cc1Cc1ccc(C(=O)Nc3cccnc3)o1)C(C)(C)CCC2(C)C [Compound 320] | – | – | remaining activity at 10 µM (1 h): 9%

SMILES | inhibition at 1 µM [1] [%] | inhibition at 1 µM [2] [%] | also measured
Cc1cc2c(cc1Cc1ccc(C(=O)Nc3ccc(CC#N)cc3)o1)C(C)(C)CCC2(C)C [Compound 347] | – | – | remaining activity at 10 µM (1 h): 2%
Cc1cc2c(cc1Cc1ccc(C(=O)Nc3cccc([N+](=O)[O-])c3)o1)C(C)(C)CCC2(C)C [Compound 370] | – | – | remaining activity at 10 µM (1 h): 37%
Cc1cc2c(cc1Cc1ccc(C(=O)Nc3ccccc3C(=O)NC3CC45CCN4CCC35)o1)C(C)(C)CCC2(C)C (stereo not drawn) [Compound 349] | – | – | remaining activity at 10 µM (1 h): 47%
Cc1cc2c(cc1Cc1ccc(C(=O)Nc3nc(N(C)C)nc4nc[nH]c34)o1)C(C)(C)CCC2(C)C [drawing 1008] | -13 | -9 | –
Cc1cc2c(cc1Cc1ccc(C(=O)NC(CO)c3ccccc3)o1)C(C)(C)CCC2(C)C (stereo not drawn) | 17 | 26 | –
COc1ccc(C(NC(=O)c2ccc(Cc3cc4c(cc3C)C(C)(C)CCC4(C)C)o2)c2ccc(OC)cc2)cc1 | 31 | 42 | –
Cc1cc2c(cc1Cc1ccc(C(=O)Nc3ccc4[nH]ncc4c3)o1)C(C)(C)CCC2(C)C [Compound 383] | – | – | remaining activity at 10 µM (1 h): 7%
Cc1cc2c(cc1Cc1ccc(C(=O)NCCCN3CCCCC3C)o1)C(C)(C)CCC2(C)C (stereo not drawn) [drawing 983] | 27 | 31 | –
Cc1cc2c(cc1Cc1ccc(C(=O)NCc3cccc(Cl)c3)o1)C(C)(C)CCC2(C)C [Compound 427] | – | – | remaining activity at 1 µM (1 h): 20%
COC(=O)c1cc(C)nc(NCc2cccc(CNC(=O)c3ccc(Cc4cc5c(cc4C)C(C)(C)CCC5(C)C)o3)c2)n1 [Compound 158] | – | – | IC50: 1.09 µM
Cc1cc2c(cc1Cc1ccc(C(=O)NCc3ccc4c(c3)C(C)(C)CCC4(C)C)o1)C(C)(C)CCC2(C)C [Compound 165] | – | – | IC50: > 10 µM
CCN(CC)C(=O)c1ccc(Cc2cc3c(cc2C)C(C)(C)CCC3(C)C)o1 [Compound 238] | – | – | IC50: 7.83 µM
Cc1cc2c(cc1Cc1ccc(C(=O)Nc3cccc(CO)c3)o1)C(C)(C)CCC2(C)C [Compound 121] | – | – | IC50: 1.1 µM
Cc1cc2c(cc1Cc1ccc(C(=O)N(C)C(C)C(O)c3ccc(O)cc3)o1)C(C)(C)CCC2(C)C (stereo not drawn) | -10 | -13 | –
Cc1cc2c(cc1Cc1ccc(C(=O)NCCCN(C)c3ccccc3)o1)C(C)(C)CCC2(C)C [drawing 1000] | 67 | 70 | –
Cc1ccccc1CNC(=O)c1ccc(Cc2cc3c(cc2C)C(C)(C)CCC3(C)C)o1 [Compound 413] | – | – | remaining activity at 1 µM (1 h): 16%
COc1ccccc1NC(=O)c1ccc(Cc2cc3c(cc2C)C(C)(C)CCC3(C)C)o1 [Compound 160] | – | – | IC50: 0.39 µM
Cc1cc2c(cc1Cc1ccc(C(=O)NC(c3ccccc3)C(O)c3ccccc3)o1)C(C)(C)CCC2(C)C (stereo not drawn) [Compound 403] | – | – | remaining activity at 1 µM (1 h): 44%
Cc1cc2c(cc1Cc1ccc(C(=O)N3CCN(c4ccccc4)CC3)o1)C(C)(C)CCC2(C)C [drawing 1092] | – | 6 | % Inhib. @ 1 uM hGnRH (1 uM): −1%
Cc1cc2c(cc1Cc1ccc(C(=O)NCC(c3ccccc3)c3ccccc3)o1)C(C)(C)CCC2(C)C | -21 | -26 | –
COCCNC(=O)c1ccc(Cc2cc3c(cc2C)C(C)(C)CCC3(C)C)o1 [Compound 40] | – | – | IC50: 0.53 µM
Cc1cc2c(cc1Cc1ccc(C(=O)NCCc3c(Cl)cccc3Cl)o1)C(C)(C)CCC2(C)C | -40 | 17 | –
Cc1cc2c(cc1Cc1ccc(C(=O)Nc3ccccc3C(=O)NCCCN3CCCC3=O)o1)C(C)(C)CCC2(C)C [Compound 368] | – | – | remaining activity at 10 µM (1 h): 56%
Cc1cc2c(cc1Cc1ccc(C(=O)NCc3ccc(Cl)cc3Cl)o1)C(C)(C)CCC2(C)C [Compound 425] | – | – | remaining activity at 1 µM (1 h): 42%

Further lines, with some results ahead:

inhibition at 1 µM [1] [%] | inhibition at 1 µM [2] [%] | SMILES | also measured
53 | 64 | Cc1cc2c(cc1Cc1ccc(C(=O)NCc3ccc(Cl)cc3Cl)o1)C(C)(C)CCC2(C)C [drawing 1133] | –
24 | 35 | COc1cc(CNC(=O)c2ccc(Cc3cc4c(cc3C)C(C)(C)CCC4(C)C)o2)cc(OC)c1 [drawing 1026] | –
63 | 64 | Cc1cc2c(cc1Cc1ccc(C(=O)NCCc3cccs3)o1)C(C)(C)CCC2(C)C [drawing 1023] | –
68 | 68 | Cc1cc2c(cc1Cc1ccc(C(=O)NCc3ccc(Cl)cc3)o1)C(C)(C)CCC2(C)C [drawing 1091] | –
76 | 83 | COc1cccc(CNC(=O)c2ccc(Cc3cc4c(cc3C)C(C)(C)CCC4(C)C)o2)c1OC [drawing 1093] | –
59 | 62 | Cc1cc2c(cc1Cc1ccc(C(=O)NCCc3cccc(F)c3)o1)C(C)(C)CCC2(C)C [drawing 1181] | –
76 | 79 | COc1cccc(CNC(=O)c2ccc(Cc3cc4c(cc3C)C(C)(C)CCC4(C)C)o2)c1 [drawing 1188] | –
93 | 95 | Cc1cc2c(cc1Cc1ccc(C(=O)NCCOc3ccccc3)o1)C(C)(C)CCC2(C)C [drawing 1182] | –
78 | 84 | Cc1cc2c(cc1Cc1ccc(C(=O)NCc3cccc(Cl)c3)o1)C(C)(C)CCC2(C)C [drawing 1136] | –
94 | 96 | COc1ccc(CNC(=O)c2ccc(Cc3cc4c(cc3C)C(C)(C)CCC4(C)C)o2)c(OC)c1 [drawing 1224] | –
